Reference: article PMC9199891 (Clinical and Translational Science, 2022)

Assay: Single-dose pharmacokinetics of omeprazole
Format: in vivo, healthy Chinese volunteers
Details: for AUC0-t / AUC0-∞ / Cmax: 20 mg single oral dose, mean ± SD; for Tmax: human, plasma, oral, 20 mg

COc1ccc2[nH]c([S+]([O-])Cc3ncc(C)c(OC)c3C)nc2c1 (centres unmarked) [omeprazole]
AUC0-t (CYP2C19 *1/*1 (n = 263)): 466.2 ± 493.2 ng·h/mL | AUC0-∞ (CYP2C19 *1/*1 (n = 263)): 499.3 ± 498.4 ng·h/mL | Cmax (CYP2C19 *1/*1 (n = 263)): 309 ± 227 ng/mL | AUC0-t (CYP2C19 *1/*2 (n = 241)): 766.4 ± 529.4 ng·h/mL | AUC0-∞ (CYP2C19 *1/*2 (n = 241)): 817.8 ± 524.4 ng·h/mL | Cmax (CYP2C19 *1/*2 (n = 241)): 449 ± 309 ng/mL | AUC0-t (CYP2C19 *1/*3 (n = 48)): 707.8 ± 490.3 ng·h/mL | AUC0-∞ (CYP2C19 *1/*3 (n = 48)): 808.0 ± 545.9 ng·h/mL | Cmax (CYP2C19 *1/*3 (n = 48)): 440 ± 390 ng/mL | AUC0-t (CYP2C19 *1/*17 (n = 6)): 363.8 ± 232.6 ng·h/mL | AUC0-∞ (CYP2C19 *1/*17 (n = 6)): 366.5 ± 233.4 ng·h/mL | AUC0-t (CYP2C19 *2/*2 (n = 74)): 3379 ± 1421 ng·h/mL | AUC0-∞ (CYP2C19 *2/*2 (n = 74)): 3790 ± 1311 ng·h/mL | Cmax (CYP2C19 *2/*2 (n = 74)): 1130 ± 992 ng/mL | AUC0-t (CYP2C19 *2/*3 (n = 17)): 3908 ± 1560 ng·h/mL | AUC0-∞ (CYP2C19 *2/*3 (n = 17)): 4221 ± 1453 ng·h/mL | Cmax (CYP2C19 *2/*3 (n = 17)): 1040 ± 550 ng/mL | AUC0-t (CYP2C19 *2/*17 (n = 2)): 507.3 ± 150.3 ng·h/mL | AUC0-∞ (CYP2C19 *2/*17 (n = 2)): 693.0 ± 109.6 ng·h/mL | Cmax (CYP2C19 *2/*17 (n = 2)): 530 ± 344 ng/mL | AUC0-t (CYP2C19 *3/*3 (n = 2)): 3913 ± 493.0 ng·h/mL | AUC0-∞ (CYP2C19 *3/*3 (n = 2)): 4444 ± 793.4 ng·h/mL | Cmax (CYP2C19 *3/*3 (n = 2)): 884 ± 575 ng/mL | AUC0-t (CYP2C19 *3/*17 (n = 3)): 544.8 ± 14.52 ng·h/mL | AUC0-∞ (CYP2C19 *3/*17 (n = 3)): 547.0 ± 14.47 ng·h/mL | Cmax (CYP2C19 phenotype IM (n = 294)): 447 ± 322 ng/mL | AUC0-t (CYP2C19 phenotype NM (n = 263)): 466.16 ± 493.21 ng·h/mL | Cmax (CYP2C19 phenotype NM (n = 263)): 308 ± 227 ng/mL | AUC0-t (CYP2C19 phenotype PM (n = 93)): 3487.32 ± 1440.13 ng·h/mL | AUC0-∞ (CYP2C19 phenotype PM (n = 93)): 3883.09 ± 1331.02 ng·h/mL | Cmax (CYP2C19 phenotype PM (n = 93)): 1110 ± 916 ng/mL | AUC0-t (CYP2C19 phenotype RM (n = 6)): 363.77 ± 232.56 ng·h/mL | Cmax increase in PM (PM versus IM): 2.5 fold | Tmax (after administration in all groups (four phenotype groups)): 3.89 to 4.45 h | Tmax (after administration in all subjects (nine diplotype groups)): 1.33 to 4.6 h
